Reference: EP4818168A1, “FUSED RING COMPOUND, PHARMACEUTICAL COMPOSITION THEREOF AND USE THEREOF” (priority 2023, dated 2025)
Read-outs that look alike come from different tables or passages of the source.

Legend:
AURKA = target: T1, AURKA (Homo sapiens, UniProt O14965); format: cell-based; details: Jurkat cells, 24 h, Table 2
T1 construct: endogenous in cells; host or cells: Jurkat cells
T1 sequence (O14965 1-403): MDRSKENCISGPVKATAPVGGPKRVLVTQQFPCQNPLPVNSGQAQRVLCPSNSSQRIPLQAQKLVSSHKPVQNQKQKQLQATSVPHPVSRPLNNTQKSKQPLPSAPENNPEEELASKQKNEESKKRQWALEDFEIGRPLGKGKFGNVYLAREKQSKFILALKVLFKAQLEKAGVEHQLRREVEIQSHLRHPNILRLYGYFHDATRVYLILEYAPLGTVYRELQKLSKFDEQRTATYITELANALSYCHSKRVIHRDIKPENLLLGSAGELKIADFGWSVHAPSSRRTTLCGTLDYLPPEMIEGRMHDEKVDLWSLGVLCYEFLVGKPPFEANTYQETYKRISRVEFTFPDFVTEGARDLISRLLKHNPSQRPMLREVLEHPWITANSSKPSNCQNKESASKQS
In short: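 Jurkat cells seeded at 1×10^6 cells/500 µL and treated with compound; lysates run on SDS-PAGE, blotted to nitrocellulose and probed overnight at 4°C for AURKA. Chemiluminescent or fluorescent band intensity fitted to a curve to give DC50 for protein degradation.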

H82 cells = test: cells; format: cell-based; details: Homo sapiens
In short: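 H82 cells in RPMI1640 + 10% FBS exposed to compound (0.1% DMSO final) for 6 days at 37 °C, 5% CO2. Viability read by CellTiter-Glo ATP luminescence, normalised to DMSO and medium controls; IC50 from nonlinear regression of the dose–survival curve.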

Mouse PK study = format: in vivo; details: male CD1 mice; for C0/Cmax / half-life / AUC(0-t) at 24 h / clearance / Vd / Tmax: plasma; for half-life / AUC(0-t) at 24 h / clearance / Vd / Tmax: mouse; for AUC(0-t) at 24 h: read-out: AUC0-24; for clearance: read-out: CLp; for Vd: read-out: Vss
Procedure: Male CD1 mice (5-8 weeks old) were administered intravenously (IV) at a dose of 1 mg/kg by tail vein bolus or orally (PO) at doses of 10 mg/kg and 40 mg/kg by gavage. The compound was formulated in a vehicle of 10% DMSO + 10% Solutol HS15 + 80% saline. All animals were given free access to food and water during the experiment. […] Blood samples were centrifuged at 3500 g for 5 min, and the resulting plasma was analyzed by an LC-MS/MS method. The PK parameters were calculated using WinNonlin software (Phoenix®, version 8.3) through non-compartmental analysis methods.

Row | Compound | Percentage of AURKA Degradation Induced by 100 nM Compound in Jurkat Cells (AURKA) | Percentage of AURKA Degradation Induced by 1 µM Compound in Jurkat Cells (AURKA) | IC50 (H82 cells; NCI-H82, H82 cells, 4000 cells/well, CellTiter-Glo, read-out: IC50 in H82 Cells) [nM] | C0/Cmax (Mouse PK study; IV 1 mg/kg) [ng/mL] | F (Mouse PK study; PO 10 mg/kg) [%] | C0/Cmax (Mouse PK study; PO 10 mg/kg) [ng/mL] | F (Mouse PK study; PO 40 mg/kg) [%] | C0/Cmax (Mouse PK study; PO 40 mg/kg) [ng/mL] | half-life (Mouse PK study; IV 1 mg/kg) [h] | AUC(0-t) at 24 h (Mouse PK study; IV 1 mg/kg) [ng·h/mL] | clearance (Mouse PK study; IV 1 mg/kg) [mL/min/kg] | Vd (Mouse PK study; IV 1 mg/kg) [L/kg] | Tmax (Mouse PK study; PO 10 mg/kg) [h] | half-life (Mouse PK study; PO 10 mg/kg) [h] | AUC(0-t) at 24 h (Mouse PK study; PO 10 mg/kg) [ng·h/mL] | Tmax (Mouse PK study; PO 40 mg/kg) [h] | half-life (Mouse PK study; PO 40 mg/kg) [h] | AUC(0-t) at 24 h (Mouse PK study; PO 40 mg/kg) [ng·h/mL] | IC50 (H82 cells; NCI-H82, read-out: IC50 in H82 Cells) [nM]
1 | O=C1CCN(c2ccc(N3CCO[C@H](C(=O)N4CCN(c5ccc(Nc6ncc7c(n6)-c6ccc(Cl)cc6C(c6c(F)cccc6F)=NC7)cc5)CC4)C3)nc2)C(=O)N1 [Compound A307] | +++ (Degradation > 70%) | +++ (Degradation > 70%) | < 1000 | 1527 | 79.7 | 2460 | 80.6 | 7283 | 2.28 | 2450 | 6.33 | 1.04 | 2 | 2.41 | 19500 | 3.33 | 2.37 | 78900 | –
2 | O=C1CCN(c2ccc(N3CCC4(CC3)CC(N3CCN(C56CC(Nc7ncc8c(n7)-c7ccc(Cl)cc7C(c7c(F)cccc7F)=NC8)(C5)C6)C(=O)C3)CO4)nc2)C(=O)N1 (stereo not drawn) [Compound A321] | +++ (Degradation > 70%) | +++ (Degradation > 70%) | – | 1307 | 157 | 4007 | 130 | 13233 | 1.89 | 2630 | 6.16 | 0.97 | 3.33 | 2.13 | 41400 | 3.33 | 1.97 | 137000 | < 1000
